{"source": "patent US20050170064A1", "about": "“Plant sterol-containing food, and method for preparing the same” (Eugene Science Inc., priority 2002, published 2005)", "origin": "cited, not measured here", "test_system": "LDL-C level", "conditions": "applied form in an oil phase (margarine)"}
{"substance": "sitostanol fatty acid ester", "values": [{"measurement": "Reduction of the LDL-C level", "value": "≤ 16", "unit": "%"}]}
